According to patent publication US12605455B2, “CAR peptide for improved coronavirus survival” (Vascular Biosciences, priority 2020, dated 2026):
Like-named read-outs stand apart in the source and are kept apart here. Bridge positions count the residues as written; N and C are the ends. Peptide text beside a SMILES is read from it.

Columns and labels:
[1] = system: endothelium of lung, liver and kidney; assay: Scanning electron micrographs of lung, liver and kidney, sivelestat with or without CAR in septic animals; format: in vivo
Source text: Scanning electron micrographs of lung tissue from control, sivelestat alone, and CAR+sivelestat treated animals. The pulmonary vasculature is shown in the enlargement.
Scanning electron micrographs of liver tissue from control, sivelestat alone, and CAR+sivelestat treated animals. The fenestrated sinusoidal endothelium with clusters of fenestrations, or ‘sieve plates,’ are visible in the control liver vasculature.
Scanning electron micrographs of kidney tissue from control, sivelestat alone, and CAR+sivelestat treated animals. In the enlargement shown of the […] vasculature, the fenestrated glomerular endothelium surrounded by podocyte foot processes (red arrow). […] This is presumably due to activation of neutrophil elastase which leads to proteolytic degradation of critical extracellular matrix proteins. […] The activity of sivelestat's anti-elastase appears to be efficiently boosted by CAR's selective homing to the injured endothelial glycocalyx in the kidney.
(§1) Thus, CAR could potentially adjuvant efficacy of other drugs against viral sepsis, including CAR in combination with sivelstat, as shown at lung (FIG. 9), liver (FIG. 10) and kidney (FIG. 11) samples.

LPS model of sepsis = assay: LPS model of sepsis, survival with sivelestat with or without CAR; format: in vivo
Source text: as §1

SARS-CoV2 [2] = format: in vivo, K18-hACE2 transgenic mice; conditions: HCT 0.2 mg/kg/dose via IT installation every 24 hours: free, liposome encapsulated or CAR-liposome encapsulated
SARS-CoV2 [3] = format: in vivo, K18-hACE2 transgenic mice; conditions: hydrocortisone 0.2 mg/kg ip every 6 hours, alone or with CAR 8 mg/kg ip
[4] = system: endothelium and endothelial glycocalyx of kidney, lung and liver; assay: Ultrastructural analysis (scanning electron microscopy) of endothelium and endothelial glycocalyx after LPS; format: in vivo; conditions: mice 48 hours after LPS; hydrocortisone 0.2 mg/kg with or without CAR
Procedure: Capillaries of the kidney are fenestrated capillaries which have small holes at endothelial cells. The destruction of this structure was 48 hours after LPS injection. Then, the endothelial wall became edematous and there was deposited fibrin on it. Capillaries of the lung are continuous type of capillaries. Although the vascular endothelium of the lung is thinner at the edges of the nucleus, edema occurred and vascular endothelial structure was impaired 48 hours after LPS injection. Capillaries of the liver are sinusoids which have a lot of large […] gap in normal capillaries. 48 hours after LPS administration, these structures have already broken the edematous of the vascular endothelium and deposited fibrin.
The endothelial glycocalyx (GCX) of the apical endothelial surface of each organ can by visualized using scanning electron microscopy (SEM) to assess GCX appearance and structure. GCX was largely denuded in the untreated sepsis group but the GXX damage was attenuated when CAR is co-administered with low-HCT.
Mice were sacrificed at 48 hours after LPS administration, and kidney, lung and liver were obtained to create frozen fracture freeze-dried samples to detect endothelial changes with electron microscopy. The specimens were examined under a scanning electron microscope (S-4500, Hitachi). […]

LPS-induced endotoxemia = assay: Survival after LPS-endotoxemia, hydrocortisone with or without CAR; format: in vivo, mice; conditions: for survival rate 48 hours after LPS: C57BL/6 male mice, LPS 20 mg/kg IP
Procedure: 10-week-old C57BL/6 male mice were given an intraperitoneal (IP) injection of Escherichia coli 055:B5 LPS 20 mg/kg. Mice were injected i.p. with 20 mg/kg lipopolysaccharide (LPS). Five different treatments were initiated: saline only group (Untreated, n=31); CAR peptide-alone administration 20 mg/kg ([…]) (CAR alone, n=20); hydrocortisone 0.2 mg/kg or 10 mg/kg Low-HCT or High-HCT, n=20, 28 respectively); and CAR 20 mg/kg co-administered with hydrocortisone 0.2 mg/kg (Low HCT+CAR, n=20). Hydrocortisone and/or CAR peptide were injected intraperitoneally at 3, 12 and 24 hours after LPS administration.

CLP sepsis = assay: Cecal ligation and puncture (2CLP) rat model of sepsis, hydrocortisone with or without CAR; format: in vivo, rats
Procedure: At 40 hours, 4 of the 5 rats in the HCT+CAR group survived while none of the rats in either the HCT group nor the sepsis group survived for 40 hours (n=5 in each group) (Log-rank P=0.008).
8-10 week-old male Sprague Dawley rats were exposed to CLP. Rats were randomized (n=5/group) to saline, hydrocortisone (0.2 mg/kg IV), or CAR (3 mg/kg IV)+HCT. Treatments were initiated 12 hours after surgery, and given every 12 hours afterwards until death, for a maximum of 5 days. Rats were treated with fluid resuscitation but not with antibiotics in this model. Survival was highest in the CAR+HCT group (FIG. 6) (Log-rank P=0.008) and the median Ang2/Ang1 ratio was lower in CAR+HCT than the hydrocortisone group (0.60 vs 1.69, p=0.06).

SARS-CoV2 [5] = format: in vivo, K18-hACE2 transgenic mice; conditions: HCT 0.2 mg/kg/dose iv every 12 hours: free, liposome encapsulated or CAR-liposome
[6] = CAR 3 mg/kg i.v. for 14 days
Irwin test in rats = format: in vivo
[7] = Safety pharmacology and TID 10-day rising-dose and multiple-dose tolerance study of CAR in rats; format: in vivo
[8] = Two-month repeat administration of CAR to pigs; format: in vivo; conditions: IV 3 mg/kg
hypertensive lungs = conditions: isolated perfused lung experiments (Toba et al. 2014); cited from earlier work
[9] = sivelestat 0.5 mg/kg or sivelestat 0.5 mg/kg + CAR

CC(C)(C)C(=O)Oc1ccc(S(=O)(=O)Nc2ccccc2C(=O)NCC(=O)O)cc1 [Sivelestat, sivelestat]
glomerular endothelium fenestrations, SEM kidney images [1]: fenestrations are absent and gross tissue damage is apparent
liver sinusoidal endothelium sieve plates, SEM liver images [1]: not able to prevent defenestration of sieve plates
pulmonary arteriole endothelium, SEM lung images [1]: did not prevent degradation of the continuous pulmonary arteriole endothelium
Survival Rate (%) 12 h (LPS model of sepsis; sivelestat 0.5 mg/kg (n=20) or sivelestat 0.5 mg/kg + CAR (n=18)): 100%
Survival Rate (%) 24 h (LPS model of sepsis; [9]): 85%
Survival Rate (%) 36 h (LPS model of sepsis; [9]): 60%
Survival Rate (%) 48 h (LPS model of sepsis; [9]): 50%

C[C@]12CCC(=O)C=C1CC[C@@H]1[C@@H]2[C@@H](O)C[C@@]2(C)[C@H]1CC[C@]2(O)C(=O)CO [HCT, hydrocortisone]
survival at 7 dpi (SARS-CoV2 [2]): some improvements in survival
survival at 7 dpi (SARS-CoV2 [3]): some improvements in survival
endothelial ultrastructure of kidney, lung and liver capillaries [4]: no beneficial effect for septic endothelial disorders
survival rate 48 hours after LPS (LPS-induced endotoxemia; hydrocortisone 0.2 mg/kg alone or with CAR 20 mg/kg, IP at 3, 12 and 24 hours): 30%
survival rate 48 hours after LPS (LPS-induced endotoxemia; hydrocortisone 10 mg/kg (High-HCT) IP at 3, 12 and 24 hours): 57%
survival difference versus untreated sepsis 48 hours after LPS (LPS-induced endotoxemia; CAR alone 20 mg/kg, hydrocortisone 0.2 mg/kg (Low-HCT)): no significant survival difference
rats surviving at 40 hours (CLP sepsis; 2CLP rats, n=5 in each group, hydrocortisone 0.2 mg/kg IV with or without CAR 3 mg/kg IV every 12 hours from 12 hours after surgery): none
hyperglycemia (CLP sepsis; CLP rats): hyperglycemia observed
median Ang2/Ang1 ratio (CLP sepsis; CLP rats, p=0.06): 1.69
survival at 7 dpi (SARS-CoV2 [5]): some improvements in survival

C[C@@H]1NC(=O)[C@@H](N)CSSC[C@@H](C(=O)O)NC(=O)[C@H](CC(=O)O)NC(=O)[C@H](CCCCN)NC(=O)[C@H](CC(N)=O)NC(=O)[C@H](CCCCN)NC(=O)[C@H](CO)NC(=O)[C@H](CCCNC(=N)N)NC1=O [CAR, CARSKNKDC] (H-CARSKNKDC-OH; disulfide 1-9; N-terminus and C-terminus assumed)
Creatinine ([6]; healthy adult Sprague-Dawley rats): 0.45 ± 0.02 mg/dL
ALP ([6]; healthy rats): 170 ± 18 U/L
AST ([6]; healthy rats): 141 ± 31 U/L
BUN ([6]; healthy rats): 17 ± 1 mg/dL
Glucose ([6]; healthy rats): 213 ± 5
Hb ([6]; healthy rats): 12.8 ± 0.2 g/dL
Tbili ([6]; healthy rats): 0.10 ± 0.04 mg/dL
Wbc ([6]; healthy rats): 4.0 ± 0.7 ×1000/μL
impact on blood renal function, hepatic function, hematologic tests and glucose hemostasis ([6]; healthy rats): no impact
adverse effects on behavior and physiological function (Irwin test in rats): no adverse effects
mortality, clinical observations, hematology, coagulation, clinical chemistry ([7]; TID 10-day rising-dose and multiple-dose, up to highest dose 20 mg/kg IV): no mortality, adverse clinical observations, and no aberrations in hematology, coagulation or clinical chemistry
adverse effects on vital physiological systems (safety pharmacology) ([7]; up to the highest levels of CAR tested): no adverse effects
immunological effects or signs of toxicity [8]: no immunological effects or signs of toxicity
concentration of the co-administered drug in the diseased lung (hypertensive lungs): doubling
